Results on nine compounds are retold here after patent publication US20110015267A1 (priority 2009, published 2011).

Entries after “also recorded” stand apart in the source; their conditions may differ. Structures can show the parent of a compound that is named as a salt.

Data set [1] can be described thus: Conventional valproates combined with L-carnitine inner salt in water. The class given is physicochemical. Particulars: for Result When Combined With L-Carnitine Inner Salt in Water: dissolution / stability behaviour of the valproate in water. An excerpt:
The inventor investigated methods for the preparation of long-needed, palatable liquid compositions having quantitatively precise defined proportions of valproate and L-carnitine in water. […] Instead, oily droplets of valproic acid adhered to the formulation vessel, making it impossible to formulate compositions having quantitatively precise defined proportions of valproate. […] This lack of purity renders it impossible to weigh calculated quantities of the magnesium valproate of '850 that are required for a quantitatively precise defined formulation and formulate a composition having the corresponding quantitatively precise defined proportions of valproate and L-carnitine; the weighed quantities of the magnesium valproate of '850 will contain variable proportions of impurities that are water-soluble, partially water-soluble, and water-insoluble as well as the magnesium valproate, and the resulting formulation will contain less than quantitatively precise proportions of valproate. […] Potassium valproate, cesium valproate, and rubidium valproate were not tested, because high concentrations of potassium, cesium, and rubidium are toxic.

Data set [2] is described as follows: Method B: incremental addition of magnesium valproate salt to L-carnitine inner salt solution.
A short description of data set [3]: Solubility limit of magnesium valproate salts in purified water USP (incremental addition). The procedure:
The experiment was repeated but valproate was added as L-carnitine magnesium valproate. Incremental portions of L-carnitine magnesium valproate were added to purified water until the solubility limit was reached, as indicated by the presence of white solid in the colorless aqueous supernatant. […] The solution was divided into portions, and known masses of L-carnitine inner salt, accurately weighed, were added to provide solutions having the compositions shown in Table 2. Each solution was tested by two analysts.

The nature of data set [4]: Sterilization of liquid dosage form by heating or filtration. It counts as physicochemical. An excerpt:
Therefore, aqueous solutions of the invention must be prepared to be free of microbial contaminants. Most preferably, water that has been purified to meet US Pharmacopeial standards is used in preparing aqueous solutions of the invention. [U.S. Pharmacopeia, Volume 32. U.S. Pharmacopeial Convention, Rockville, Md. USP Monograph entitled “Purified Water” and chapter entitled “Water for Pharmaceutical Purposes”<1231>.] Water can be purified in known ways to be free of trace contaminants and microbes that cause undesirable side reactions when administered therapeutically to a subject. However, L-carnitine decomposes when subjected to heating. Therefore, the inventor has used aseptic processing and sterilization by filtration through a filter having a pore-size sufficiently small to allow passage of the composition of the invention through the pores but prevent passage of microbes to prepare compositions for pharmaceutical use.
A palatable liquid dosage form of the invention is divided into portions. Each portion is subjected to sterilization by (a) heating or (b) filtration through a filter membrane having a […] pore size.

For data set [5] the following is noted: cited from earlier work.
For data set [6] the following is noted: cited from earlier work. The source holds these as a separate data set.
For data set [7] the following is noted: reported; not tested by the inventor; cited from earlier work.
[8] abbreviates: with about 1,000 mg/mL L-carnitine.

Regarding `CCCC(CCC)C(=O)O` [Divalproex sodium], in data set [1], the “Result When Combined With L-Carnitine Inner Salt in Water” value was “decomposed on addition to water”.

With `CCCC(CCC)C(=O)[O-].CCCC(CCC)C(=O)[O-].C[N+](C)(C)C[C@H](O)CC(=O)[O-].[Mg+2]` [L-carnitine magnesium valproate, L-Carnitine magnesium valproate], in data set [2] (in aqueous L-carnitine inner salt, about 1,000 mg/mL L-carnitine), the “valproate concentration at the limit of solubility” value was “about 150 mg/mL”. In data set [2] (setting [8]), the “appearance of solution at the limit of solubility” value is “clear and colorless”; the “odor of solution at the limit of solubility” value is given as “no odor”; the pH of solution result is listed as “near neutral”; the “taste of solution at the limit of solubility” value is on record as “no taste”. For the same compound, in data set [3], the “solubility limit, valproate concentration of the solution” value is given as “about 150 mg/mL”.

As for `C[N+](C)(C)CC(O)CC(=O)[O-]` [L-carnitine, L-Carnitine inner salt], the “stability when subjected to heating” value in data set [4] is “decomposes”.

In the case of `CCCC(CCC)C(=O)[O-].[Na+]` [Sodium valproate], in data set [1], the “Result When Combined With L-Carnitine Inner Salt in Water: solution appearance” value is listed as “weighing. Solution was clear &” and the “Result When Combined With L-Carnitine Inner Salt in Water” value is given as “rapidly adsorbed water from the atmosphere; also recorded: Sodium valproate is hygroscopic”.

Consider `CCCC(CCC)C(=O)O` [Valproic acid, 2-propylpentanoic acid], for which, in data set [5], the solubility in water result is “very slightly soluble in water”. In addition, in data set [1] (listed as valproic acid), the “Result When Combined With L-Carnitine Inner Salt in Water” value is “poorly soluble in water”.

In the case of `CCCC(CCC)C(=O)O` [valproate], in data set [6] (all conventional dosage forms), the “absorption from the gastrointestinal tract” value is “rapidly and nearly completely absorbed”; the “time of peak plasma concentrations after ingestion” value was 1 to 4 h. For the same compound, in data set [6] (humans and other mammals), the “excreted in the urine as an L-carnitine ester” value is 3%; the “metabolized by β- and ω-oxidations in mitochondria and the cytosol” value was 17%; the “metabolized in the liver by direct glucuronidation” value is 80%.

On to Calcium valproate, for which the carcinogenicity entry in data set [7] is “been reported to be carcinogenic”.

On to Magnesium valproate, for which the “Result When Combined With L-Carnitine Inner Salt in Water” value in data set [1] is “did not dissolve completely in water; also recorded: failed to dissolve completely;”.

For the compound Magnesium valproate hydrate, the pH of solution result in data set [2] (setting [8]) is on record as “near neutral”.
